# Results taken from patent US5843758A, “Enzyme based bioremediation” (priority 1994, dated 1998).
# Residue numbers refer to the chain shown, from its start.
# Legend:
# [1] = test system: CFVP hydrolysing enzyme (E3 esterase) in homogenate of OP-resistant L. cuprina strain RM2-6 [der-S]; experiment: Radiometric partition assay for OP hydrolysis, whole-fly homogenate; format: biochemical, Lucilia cuprina; conditions: preliminary kinetic experiments
# Description: Enzyme samples were diluted in 0.1M imidazole-HCl buffer pH 7.0 ("imidazole buffer") to a final volume of 25 μl. Reactions were started by the addition of 25 μl of [^14 C-ethyl]-chlorfenvinphos (CFVP, 306.5 MBq/mmole, Internationale Isotope Munchen) diluted in imidazole buffer from a 7.5 mM stock solution in ethanol. The final chlorfenvinphos concentration was typically 50 or 75 μM for routine assays but can be much lower for the determination of kinetic parameters. The reaction was incubated at 30° C. and stopped by the addition of 300 μl dichloromethane and 150 µl of imidazole buffer containing 10 μM diethylphosphate (Eastman Kodak) followed by vigourous vortex mixing. The reactions were centrifuged to separate phases and 150 μl of the upper, aqueous phase was taken for scintillation counting to determine the amount of ^14 C-diethylphosphate produced by hydrolysis of CFVP. Incubations with boiled enzyme were also performed to control for non-enzymic hydrolysis of CFVP.
# (i) Whole-fly homogenates: Assays were carried out on whole-fly homogenates using 50 μM CFVP. […] The boiled control hydrolysed CFVP at a rate of 0.48 pmol/min/mg protein. Homogenates derived from an OP-susceptible strain (LS2) hydrolysed CFVP at the same rate as the boiled control, indicating the absence of CFVP hydrolytic enzymic activity in OP-susceptible L. cuprina.
# [2] = target: T1, Lucilia cuprina LcαE7 (E3) esterase, OP resistant allele, clone Lc7L103D (Gly to Asp at amino acid position 137) (Lucilia cuprina, UniProt Q25252, form not given/G137D); experiment: Radiometric partition assay for OP hydrolysis, enzyme expressed in vitro (baculovirus/Sf9); format: biochemical
# T1 sequence (Q25252 1-570 G137D): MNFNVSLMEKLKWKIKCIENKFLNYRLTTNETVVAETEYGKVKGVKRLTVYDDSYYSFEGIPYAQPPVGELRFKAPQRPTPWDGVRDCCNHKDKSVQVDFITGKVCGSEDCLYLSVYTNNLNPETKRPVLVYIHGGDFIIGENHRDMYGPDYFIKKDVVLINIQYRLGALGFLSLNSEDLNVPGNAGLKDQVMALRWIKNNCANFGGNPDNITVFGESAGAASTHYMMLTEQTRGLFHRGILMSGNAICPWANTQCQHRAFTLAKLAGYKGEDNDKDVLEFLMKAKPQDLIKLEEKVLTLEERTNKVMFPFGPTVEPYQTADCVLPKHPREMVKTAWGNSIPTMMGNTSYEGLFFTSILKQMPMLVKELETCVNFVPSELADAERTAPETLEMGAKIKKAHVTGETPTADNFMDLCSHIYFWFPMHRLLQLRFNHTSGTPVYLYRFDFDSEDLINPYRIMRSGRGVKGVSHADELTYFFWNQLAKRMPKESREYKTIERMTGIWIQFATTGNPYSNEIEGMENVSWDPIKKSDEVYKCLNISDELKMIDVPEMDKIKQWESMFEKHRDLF
# Description: (§1) The susceptible (clone Lc743) and resistant (clone Lc7L103D) alleles of LcαE7 were cloned into the baculovirus transfer vector, Bacpac 8 (Clonetech), 3' of the polyhedrin promoter. Transfections were conducted using a lipofection method with polybrene (Sigma) according to King, L. A. & Possee, R. D. (The Baculovirus Expression System: A Laboratory Guide, Chapman & Hall, London, 1992). One μg of DNA of each of the resulting constructs together with 200 ng of Bacpac 6 baculovirus DNA (Clonetech), linearised by digestion with the restriction enzyme BSU 36I (Progema), was incubated in a solution of hepes buffered saline containing 0.5% polybrene (Sigma) at room temperature for 10 minutes. The solution was then used to transfect a single well of a six well tissue culture plate pre-seeded 2 hr previously with 10^4 Sf9 (Spodoptera frugiperda) cells in 1.5 ml Grace's medium (King, L. A. & Possee, R. D, The Baculovirus Expression System: A Laboratory Guide, Chapman & Hall, London, 1992). After 12 hr, the medium was removed, made up to 10% DMSO and placed back over the cells for 5 minutes. This was then replaced with 3 ml of Grace's medium containing 10% fetal calf serum. Construct plus polybrene, linearised virus plus polybrene and polybrene only controls were conducted in parallel with transfections. […]
# [3] = target: T2, Lucilia cuprina LcαE7 (E3) esterase, OP susceptible allele, clone Lc743 (printed Lc473), SEQ ID NO:3 (Lucilia cuprina, UniProt Q25252); experiment: Malathion hydrolysis / time-dependent inhibition of the enzyme by malathion; format: biochemical; conditions: in the presence of 4 μM malathion; supernatant of cells expressing the OP susceptible allele
# T2 sequence (Q25252 1-570): T1 sequence (Q25252 1-570 G137D) with D137G
# Description: as §1, with “1992).” for “1992). After 12 hr, the medium was removed, made up to 10% DMSO and placed back over the cells for 5 minutes. This was then replaced with 3 ml of Grace's medium containing 10% fetal calf serum. Construct plus polybrene, linearised virus plus polybrene and polybrene only controls were conducted in parallel with transfections.”
# Initial rates of malathion hydrolysis by the supernatant of cells expressing the OP susceptible allele, […], was 3.3 pmole/min/μl from an initial concentration of 4 μM malathion. […] Malathion hydrolysis (0.5 pmoles/min/μl) was also detected in the supernatant of cells expressing the D. melanogaster homologue, DmaE7.
SMILES,"Km ([1]; RM2-6 homogenate, CFVP hydrolysis, pH 7.0, 30° C.)",Vmax for the hydrolysis of CFVP ([1]; homogenates of the resistant strain),"Km ([2]; cells expressing the Lc7L103D allele, CFVP hydrolysis, imidazole-HCl pH 7.0, 30° C., preliminary kinetic experiments, read-out: Km of the CFVP hydrolysing enzyme)","Vmax of CFVP hydrolysis ([2]; cells expressing the OP resistant allele Lc7L103D, pH 7.0, 30° C.)",half-life of enzyme inhibition by malathion [3]
"CCOP(=O)(OCC)OC(=CCl)c1ccc(Cl)cc1Cl [CFVP, chlorfenvinphos]",~16 µM,approximately 13 pmol/min/mg protein,~16 µM,approximately 2.0 nmol/min/mg protein,
CCOC(=O)CC(SP(=S)(OC)OC)C(=O)OCC (centres unmarked) [malathion],,,,,about 20 minutes
